Measurements: patent US8524755B2 (priority 2009, dated 2013)

How the values were obtained:
[1] = target: T1, PKCα (h) (Homo sapiens, UniProt P17252); experiment: Enzyme assay PKCα (h); type: biochemical; conditions: read-out: % Inhibition of Control Values @ 10 μM
T1 construct: host or cells: insect cells
Excerpt: (§1) The enzyme assays provided below will be familiar to those skilled in the art.
(§2) Analysis and Expression of Results: The results are expressed as a percent of control specific activity ((measured specific activity/control specific activity)×100) obtained in the presence of the test compounds.

[2] = system: opioid (ns); experiment: Binding opioid (ns) (aa); set-up: species or system rat
Method: (§3) Radioligand binding assay methods utilized to measure the activity of compounds of the invention will be familiar to those skilled in the art. In each assay case, the assay components such as, for example, the cell-type, ligand, reference compound and the like, will be familiar to practitioners of such an assay.
(§4) Analysis and Expression of Results: Compounds of the invention were tested in the biochemical assays and percent inhibition of specific binding was determined. The specific ligand binding to the receptors is defined as the difference between the total binding and the nonspecific binding determined in the presence of an excess of unlabelled ligand. The results are expressed as a percent inhibition of control specific binding (100−((measured specific binding/control specific binding)×100)) obtained in the presence of test compounds.

[3] = system: Ca^2+ channel (L, dihydropyridine site); experiment: Binding Ca2+ channel (L, dihydropyridine site) (aa); set-up: species or system rat
Method: as §3, §4

[4] = target: T2, PDE1B (h) (Homo sapiens, UniProt Q01064); experiment: Enzyme assay PDE1B (h); type: biochemical; conditions: read-out: % Inhibition of Control Values @ 10 μM
T2 construct: host or cells: Sf9 cells
T2 sequence (Q01064 whole entry): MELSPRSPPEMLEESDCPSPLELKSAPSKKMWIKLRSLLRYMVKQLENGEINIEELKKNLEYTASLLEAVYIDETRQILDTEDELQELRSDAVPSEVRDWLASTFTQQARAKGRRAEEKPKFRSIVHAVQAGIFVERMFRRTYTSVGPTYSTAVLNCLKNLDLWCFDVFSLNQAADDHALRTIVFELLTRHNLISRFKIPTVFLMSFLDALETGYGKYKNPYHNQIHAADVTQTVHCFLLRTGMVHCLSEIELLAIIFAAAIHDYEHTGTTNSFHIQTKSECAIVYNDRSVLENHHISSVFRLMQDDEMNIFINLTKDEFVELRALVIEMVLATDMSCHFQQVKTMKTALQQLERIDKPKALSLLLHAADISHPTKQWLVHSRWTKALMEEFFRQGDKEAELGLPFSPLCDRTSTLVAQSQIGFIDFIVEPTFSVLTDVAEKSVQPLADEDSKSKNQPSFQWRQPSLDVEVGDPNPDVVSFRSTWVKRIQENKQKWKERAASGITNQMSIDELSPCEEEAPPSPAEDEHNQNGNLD
Excerpt: as §1, §2

[5] = target: T3, MAO-B (h) (Homo sapiens, UniProt P27338); experiment: Enzyme assay MAO-B (h); type: biochemical; conditions: read-out: % Inhibition of Control Values @ 10 μM
T3 construct: human platelets; from tissue; host or cells: human platelets
T3 sequence (P27338 1-520): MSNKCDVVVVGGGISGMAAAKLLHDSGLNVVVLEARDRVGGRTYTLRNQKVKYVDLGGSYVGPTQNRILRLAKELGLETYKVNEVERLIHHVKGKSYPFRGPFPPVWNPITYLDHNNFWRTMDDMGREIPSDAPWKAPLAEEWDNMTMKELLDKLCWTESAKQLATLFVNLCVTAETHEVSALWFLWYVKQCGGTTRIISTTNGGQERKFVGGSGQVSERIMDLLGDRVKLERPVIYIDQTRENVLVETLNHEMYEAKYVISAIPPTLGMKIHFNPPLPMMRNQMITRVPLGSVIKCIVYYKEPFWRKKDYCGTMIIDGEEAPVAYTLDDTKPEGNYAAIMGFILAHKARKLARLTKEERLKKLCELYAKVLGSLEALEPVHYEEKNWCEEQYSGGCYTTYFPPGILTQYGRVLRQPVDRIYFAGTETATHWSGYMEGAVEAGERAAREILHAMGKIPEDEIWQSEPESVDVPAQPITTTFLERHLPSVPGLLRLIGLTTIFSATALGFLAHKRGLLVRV
Excerpt: as §1, §2

[6] = target: T4, Bradykinin B1 (h) (Homo sapiens, UniProt P46663); experiment: Binding B1 (h) (ag); conditions: read-out: % Inhibition of Control Specific Binding @ 10 μM
T4 construct: expressed in transfected cells; host or cells: CHO cells
T4 sequence (P46663 1-353): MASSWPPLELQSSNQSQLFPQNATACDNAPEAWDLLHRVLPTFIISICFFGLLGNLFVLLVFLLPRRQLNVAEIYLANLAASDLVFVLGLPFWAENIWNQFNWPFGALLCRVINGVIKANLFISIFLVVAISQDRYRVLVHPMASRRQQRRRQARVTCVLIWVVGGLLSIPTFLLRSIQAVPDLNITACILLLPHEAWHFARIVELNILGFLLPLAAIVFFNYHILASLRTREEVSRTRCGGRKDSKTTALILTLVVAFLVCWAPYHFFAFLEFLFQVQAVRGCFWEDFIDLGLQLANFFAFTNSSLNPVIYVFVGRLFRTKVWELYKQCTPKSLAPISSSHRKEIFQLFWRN
Method: as §3, §4

[7] = target: T5, Angiotensin AT2 (h) (Homo sapiens, UniProt P50052); experiment: Binding AT2 (h); conditions: AT2 (h) (aa), read-out: % Inhibition of Control Specific Binding @ 10 μM
T5 construct: expressed in transfected cells; host or cells: CHO cells
T5 sequence (P50052 1-363): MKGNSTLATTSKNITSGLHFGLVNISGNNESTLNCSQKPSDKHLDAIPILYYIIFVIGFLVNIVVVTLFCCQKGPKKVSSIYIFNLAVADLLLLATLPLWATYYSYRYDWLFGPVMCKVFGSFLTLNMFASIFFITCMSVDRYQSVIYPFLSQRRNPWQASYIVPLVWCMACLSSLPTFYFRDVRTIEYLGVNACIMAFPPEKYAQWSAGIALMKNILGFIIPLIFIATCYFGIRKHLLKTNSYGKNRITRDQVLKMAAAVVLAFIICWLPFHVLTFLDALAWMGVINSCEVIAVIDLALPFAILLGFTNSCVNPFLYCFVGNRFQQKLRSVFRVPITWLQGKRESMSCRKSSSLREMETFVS
Method: as §3, §4

[8] = target: T6, Vasopressin V1a (h) (Homo sapiens, UniProt P37288); experiment: Binding V1a (h) (ag); conditions: read-out: % Inhibition of Control Specific Binding @ 10 μM
T6 construct: expressed in transfected cells; host or cells: CHO cells
T6 sequence (P37288 whole entry): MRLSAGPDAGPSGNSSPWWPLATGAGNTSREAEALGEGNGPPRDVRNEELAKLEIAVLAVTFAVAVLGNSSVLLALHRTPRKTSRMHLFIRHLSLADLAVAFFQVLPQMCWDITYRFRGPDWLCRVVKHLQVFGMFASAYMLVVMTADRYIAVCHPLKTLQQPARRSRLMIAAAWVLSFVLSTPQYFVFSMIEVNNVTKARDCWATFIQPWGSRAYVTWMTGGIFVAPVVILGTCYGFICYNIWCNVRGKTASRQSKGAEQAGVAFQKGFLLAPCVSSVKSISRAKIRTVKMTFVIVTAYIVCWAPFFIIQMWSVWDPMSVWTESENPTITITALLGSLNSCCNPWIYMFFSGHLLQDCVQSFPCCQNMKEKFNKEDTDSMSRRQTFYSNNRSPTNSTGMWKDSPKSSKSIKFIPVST
Method: as §3, §4

[9] = target: T7, GnRH (LH-RH) (Rattus norvegicus, UniProt P30969); experiment: Binding GnRH (LH-RH) (ag); conditions: read-out: % Inhibition of Control Specific Binding @ 10 μM
T7 construct: rat pituitary gland; from tissue; host or cells: rat pituitary gland
T7 sequence (P30969 1-327): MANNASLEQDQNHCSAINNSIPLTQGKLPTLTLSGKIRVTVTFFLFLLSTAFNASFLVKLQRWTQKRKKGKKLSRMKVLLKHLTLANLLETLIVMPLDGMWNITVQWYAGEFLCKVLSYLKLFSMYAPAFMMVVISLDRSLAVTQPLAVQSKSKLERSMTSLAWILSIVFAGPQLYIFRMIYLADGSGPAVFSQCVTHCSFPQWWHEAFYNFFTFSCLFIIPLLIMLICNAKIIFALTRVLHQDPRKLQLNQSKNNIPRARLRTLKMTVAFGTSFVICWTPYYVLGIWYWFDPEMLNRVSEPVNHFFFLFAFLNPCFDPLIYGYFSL
Method: as §3, §4

[10] = target: T8, Endothelin ETB (h) (Homo sapiens, UniProt P24530); experiment: Binding ETB (h) (ag); conditions: read-out: % Inhibition of Control Specific Binding @ 10 μM
T8 construct: expressed in transfected cells; host or cells: CHO cells
T8 sequence (P24530 27-442): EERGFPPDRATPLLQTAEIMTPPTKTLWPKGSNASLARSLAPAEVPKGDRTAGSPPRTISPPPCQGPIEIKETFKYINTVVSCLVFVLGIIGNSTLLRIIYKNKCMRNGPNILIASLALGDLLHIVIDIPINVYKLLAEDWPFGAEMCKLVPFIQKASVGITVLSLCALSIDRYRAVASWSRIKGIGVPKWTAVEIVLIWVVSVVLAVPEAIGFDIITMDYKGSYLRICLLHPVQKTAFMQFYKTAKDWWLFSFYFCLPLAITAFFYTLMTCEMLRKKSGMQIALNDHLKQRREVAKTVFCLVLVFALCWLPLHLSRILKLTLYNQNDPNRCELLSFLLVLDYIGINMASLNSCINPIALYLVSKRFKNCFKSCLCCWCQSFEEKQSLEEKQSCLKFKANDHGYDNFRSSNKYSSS
Method: as §3, §4

SMILES	inhibition at 10 µM [1]	% Inhibition of Control Specific Binding @ 10 μM [2]	% Inhibition of Control Specific Binding @ 10 μM [3]	inhibition at 10 µM [4]	inhibition at 10 µM [5]	inhibition at 10 µM [6]	inhibition at 10 µM [7]	inhibition at 10 µM [8]	inhibition at 10 µM [9]	inhibition at 10 µM [10]
CNC(=O)c1ccc(N2C(=O)N(c3ccc(C#N)c(C(F)(F)F)c3)C(=O)C2(C)C)cc1F [(MIV), 4-(3-(4-cyano-3-(trifluoromethyl)phenyl)-5,5-dimethyl-2,4-dioxoimidazolidin-1-yl)-2-fluoro-N-methylbenzamide]	5%	−10%	16%	-2%	11%	4%	1%	-8%	0%	-3%
CC1(C)C(=O)N(c2ccc(C#N)c(C(F)(F)F)c2)C(=S)N1c1ccc(C(=O)O)c(F)c1 [(MI), 4-(3-(4-cyano-3-(trifluoromethyl)phenyl)-5,5-dimethyl-4-oxo-2-thioxoimidazolidin-1-yl)-2-fluorobenzoic acid]	4%	−6%	16%	0%	8%	0%	-1%	2%	-21%	-7%
CC1(C)C(=O)N(c2ccc(C#N)c(C(F)(F)F)c2)C(=O)N1c1ccc(C(N)=O)c(F)c1 [(MIII), 4-(3-(4-cyano-3-(trifluoromethyl)phenyl)-5,5-dimethyl-2,4-dioxoimidazolidin-1-yl)-2-fluorobenzamide]	3%	−15%	−2%	-8%	-5%	5%	-2%	-1%	5%	0%
CC1(C)C(=O)N(c2ccc(C#N)c(C(F)(F)F)c2)C(=S)N1c1ccc(C(N)=O)c(F)c1 [(MII), 4-(3-(4-Cyano-3-(trifluoromethyl)phenyl)-5,5-dimethyl-4-oxo-2-thioxoimidazolidin-1-yl)-2-fluorobenzamide]	6%	−14%	18%	-11%	-4%	6%	-6%	15%	-51%	-4%
